Measurements: the NIST ThermoML archive (doi:10.1016/j.fluid.2012.01.031)
± gives the expanded uncertainty stated by the source.

Settings: Crystal; DTA

Row | Compound | Normal melting temperature [°C]
1 | c1ccc2c(c1)oc1ccccc12 [dibenzo[bd]furan] | 82.51 ± 0.41
2 | c1ccc2c(c1)Cc1ccccc1-2 [fluorene] | 114.38 ± 0.41
